# Target: T1, Bcl-2 protein (Recombinant Human Bcl-2 Protein) (Homo sapiens, UniProt P10415)
# T1 construct: purchased Novus NBP2-34889
# Test: Binding evaluation of mixture library compounds to Bcl-2 using AS-MS (affinity selection mass spectrometry)
# Conditions: AS-MS on the mixture of 1200 library compounds, ASMS Ratio(%)=(A−C)/B×100; for ASMS ratio (%) n = 1: replicate n = 1; for ASMS ratio (%) n = 2: replicate n = 2
# Procedure, shortened: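 Bcl-2 binding is scored from LC/MS signal retained with protein through gel-filtration spin columns, normalised to unfiltered and protein-free controls. Incubation: 20 μM protein, […] per compound, 1 h, 23° C.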
# T1 sequence (P10415 whole entry): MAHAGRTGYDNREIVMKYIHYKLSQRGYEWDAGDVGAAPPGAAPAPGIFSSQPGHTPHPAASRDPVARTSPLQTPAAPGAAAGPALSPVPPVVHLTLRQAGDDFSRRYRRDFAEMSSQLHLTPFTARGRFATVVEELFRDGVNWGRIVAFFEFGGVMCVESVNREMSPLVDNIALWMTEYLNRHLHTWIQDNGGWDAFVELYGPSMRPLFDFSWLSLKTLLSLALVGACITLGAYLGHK
ASMS ratio (%) n = 1 [%],ASMS ratio (%) n = 2 [%],SMILES
3.2,2.5,"CCOc1cccc(-c2ccccc2CN2CCN(c3ccc(C(=O)N(C)CC45CC6CC(CC(C6)C4)C5)cc3)CC2)c1 [B3A045-01, N-(1-Adamantylmethyl)-4-[4-[[2-(3-ethoxyphenyl)phenyl]methyl]piperazin-1-yl]-N-methylbenzamide]"
1.5,3.6,"CCOc1cncc(-c2ccccc2CN2CCN(c3ccc(C(=O)N(C)CC45CC6CC(CC(C6)C4)C5)cc3)CC2)c1 [B3A046-01, N-(1-Adamantylmethyl)-4-[4-[[2-(5-ethoxypyridin-3-yl)phenyl]methyl]piperazin-1-yl]-N-methylbenzamide]"
1.8,−5.9,"CCOc1cccc(-c2ccc(CN3CCN(c4ccc(C(=O)N(C)CC56CC7CC(CC(C7)C5)C6)cc4)CC3)cc2C)c1 [B3A047-01, N-(1-Adamantylmethyl)-4-[4-[[4-(3-ethoxyphenyl)-3-methylphenyl]methyl]piperazin-1-yl]-N-methylbenzamide]"
21.3,−4.2,"CCOc1cccc(-c2ccc(CN3CCN(c4ccc(C(=O)N(C)CC56CC7CC(CC(C7)C5)C6)cc4)CC3)cc2F)c1 [B3A051-01, N-(1-Adamantylmethyl)-4-[4-[[4-(3-ethoxyphenyl)-3-fluorophenyl]methyl]piperazin-1-yl]-N-methylbenzamide]"
12.5,9.9,"CCOc1cccc(-c2ccc(CN3CCN(c4ccc(C(=O)N(C)CC56CC7CC(CC(C7)C5)C6)cc4)CC3)c(OC)c2)c1 [B3A053-01, N-(1-Adamantylmethyl)-4-[4-[[4-(3-ethoxyphenyl)-2-methoxyphenyl]methyl]piperazin-1-yl]-N-methylbenzamide]"
10.8,−12.7,"CCOc1cccc(-c2cc(CN3CCN(c4ccc(C(=O)N(C)CC56CC7CC(CC(C7)C5)C6)cc4)CC3)cc(OCC)c2)c1 [B3A055-01, N-(1-Adamantylmethyl)-4-[4-[[3-ethoxy-5-(3-ethoxyphenyl)phenyl]methyl]piperazin-1-yl]-N-methylbenzamide]"
6.3,2.5,"CCOc1cccc(-c2cc(CN3CCN(c4ccc(C(=O)N(C)CC56CC7CC(CC(C7)C5)C6)cc4)CC3)cc(OC(C)C)c2)c1 [B3A057-01, N-(1-Adamantylmethyl)-4-[4-[[3-(3-ethoxyphenyl)-5-propan-2-yloxyphenyl]methyl]piperazin-1-yl]-N-methylbenzamide]"
–,421.3,"CCOc1cccc(-c2cc(CN3CCN(c4ccc(C(=O)N(C)CC56CC7CC(CC(C7)C5)C6)cc4)CC3)cc(C(F)(F)F)c2)c1 [B3A061-01, N-(1-Adamantylmethyl)-4-[4-[[3-(3-ethoxyphenyl)-5-(trifluoromethyl)phenyl]methyl]piperazin-1-yl]-N-methylbenzamide]"
–,390.0,"CCOc1cccc(-c2cc(CN3CCN(c4ccc(C(=O)N(C)CC56CC7CC(CC(C7)C5)C6)cc4)CC3)cc(OC(F)(F)F)c2)c1 [B3A063-01, N-(1-Adamantylmethyl)-4-[4-[[3-(3-ethoxyphenyl)-5-(trifluoromethoxy)phenyl]methyl]piperazin-1-yl]-N-methylbenzamide]"

# The next lines start with the compound.
SMILES,ASMS ratio (%) n = 1 [%],ASMS ratio (%) n = 2 [%]
"CCOc1cccc(-c2cc(C(=O)N3CCN(c4ccc(C(=O)N(C)CC56CC7CC(CC(C7)C5)C6)cc4)CC3)cc(C(C)(C)C)c2)c1 [B3A037-01, N-(1-Adamantylmethyl)-4-[4-[3-tert-butyl-5-(3-ethoxyphenyl)benzoyl]piperazin-1-yl]-N-methylbenzamide]",0.0,0.0
"CCOc1cncc(-c2cc(C(=O)N3CCN(c4ccc(C(=O)N(C)CC56CC7CC(CC(C7)C5)C6)cc4)CC3)cc(C(C)(C)C)c2)c1 [B3A038-01, N-(1-Adamantylmethyl)-4-[4-[3-tert-butyl-5-(5-ethoxypyridin-3-yl)benzoyl]piperazin-1-yl]-N-methylbenzamide]",2.5,−2.9
"CCOc1cccc(-c2cc(C(=O)N3CCN(c4ccc(C(=O)N(C)CC56CC7CC(CC(C7)C5)C6)cc4)CC3)cc(C(F)(F)F)c2)c1 [B3A039-01, N-(1-Adamantylmethyl)-4-[4-[3-(3-ethoxyphenyl)-5-(trifluoromethyl)benzoyl]piperazin-1-yl]-N-methylbenzamide]",3.8,0.0
"CCOc1cncc(-c2cc(C(=O)N3CCN(c4ccc(C(=O)N(C)CC56CC7CC(CC(C7)C5)C6)cc4)CC3)cc(C(F)(F)F)c2)c1 [B3A040-01, N-(1-Adamantylmethyl)-4-[4-[3-(5-ethoxypyridin-3-yl)-5-(trifluoromethyl)benzoyl]piperazin-1-yl]-N-methylbenzamide]",3.5,−6.7
"CCOc1cccc(C#Cc2cc(C(=O)N3CCN(c4ccc(C(=O)N(C)CC56CC7CC(CC(C7)C5)C6)cc4)CC3)cc(C(F)(F)F)c2)c1 [B3A041-01, N-(1-Adamantylmethyl)-4-[4-[3-[2-(3-ethoxyphenyl)ethynyl]-5-(trifluoromethyl)benzoyl]piperazin-1-yl]-N-methylbenzamide]",–,425.9
"CCOc1cncc(C#Cc2cc(C(=O)N3CCN(c4ccc(C(=O)N(C)CC56CC7CC(CC(C7)C5)C6)cc4)CC3)cc(C(F)(F)F)c2)c1 [B3A042-01, N-(1-Adamantylmethyl)-4-[4-[3-[2-(5-ethoxypyridin-3-yl)ethynyl]-5-(trifluoromethyl)benzoyl]piperazin-1-yl]-N-methylbenzamide]",−0.2,−1.2
"CCOc1cccc(-c2cnn(-c3cc(C(=O)N4CCN(c5ccc(C(=O)N(C)CC67CC8CC(CC(C8)C6)C7)cc5)CC4)cc(C(F)(F)F)c3)c2)c1 [B3A043-01, N-(1-Adamantylmethyl)-4-[4-[3-[4-(3-ethoxyphenyl)pyrazol-1-yl]-5-(trifluoromethyl)benzoyl]piperazin-1-yl]-N-methylbenzamide]",0.5,−0.3
"CCOc1cncc(-c2cnn(-c3cc(C(=O)N4CCN(c5ccc(C(=O)N(C)CC67CC8CC(CC(C8)C6)C7)cc5)CC4)cc(C(F)(F)F)c3)c2)c1 [B3A044-01, N-(1-Adamantylmethyl)-4-[4-[3-[4-(5-ethoxypyridin-3-yl)pyrazol-1-yl]-5-(trifluoromethyl)benzoyl]piperazin-1-yl]-N-methylbenzamide]",12.3,−12.4
"CCOc1cncc(-c2ccc(CN3CCN(c4ccc(C(=O)N(C)CC56CC7CC(CC(C7)C5)C6)cc4)CC3)cc2C)c1 [B3A048-01, N-(1-Adamantylmethyl)-4-[4-[[4-(5-ethoxypyridin-3-yl)-3-methylphenyl]methyl]piperazin-1-yl]-N-methylbenzamide]",7.3,−8.8
"CCOc1cncc(-c2ccc(CN3CCN(c4ccc(C(=O)N(C)CC56CC7CC(CC(C7)C5)C6)cc4)CC3)c(CC)c2)c1 [B3A050-01, N-(1-Adamantylmethyl)-4-[4-[[4-(5-ethoxypyridin-3-yl)-2-ethylphenyl]methyl]piperazin-1-yl]-N-methylbenzamide]",6.1,−4.3
"CCOc1cncc(-c2ccc(CN3CCN(c4ccc(C(=O)N(C)CC56CC7CC(CC(C7)C5)C6)cc4)CC3)c(OC)c2)c1 [B3A054-01, N-(1-Adamantylmethyl)-4-[4-[[4-(5-ethoxypyridin-3-yl)-2-methoxyphenyl]methyl]piperazin-1-yl]-N-methylbenzamide]",0.0,0.0
"CCOc1cncc(-c2cc(CN3CCN(c4ccc(C(=O)N(C)CC56CC7CC(CC(C7)C5)C6)cc4)CC3)cc(OCC)c2)c1 [B3A056-01, N-(1-Adamantylmethyl)-4-[4-[[3-ethoxy-5-(5-ethoxypyridin-3-yl)phenyl]methyl]piperazin-1-yl]-N-methylbenzamide]",–,0.0
"CCOc1cncc(-c2cc(CN3CCN(c4ccc(C(=O)N(C)CC56CC7CC(CC(C7)C5)C6)cc4)CC3)cc(OC(C)C)c2)c1 [B3A058-01, N-(1-Adamantylmethyl)-4-[4-[[3-(5-ethoxypyridin-3-yl)-5-propan-2-yloxyphenyl]methyl]piperazin-1-yl]-N-methylbenzamide]",5.9,−7.6
"CCOc1cccc(-c2cc(OC)c(CN3CCN(c4ccc(C(=O)N(C)CC56CC7CC(CC(C7)C5)C6)cc4)CC3)c(OC)c2)c1 [B3A059-01, N-(1-Adamantylmethyl)-4-[4-[[4-(3-ethoxyphenyl)-2,6-dimethoxyphenyl]methyl]piperazin-1-yl]-N-methylbenzamide]",−1.9,−8.0
"CCOc1cncc(-c2cc(OC)c(CN3CCN(c4ccc(C(=O)N(C)CC56CC7CC(CC(C7)C5)C6)cc4)CC3)c(OC)c2)c1 [B3A060-01, N-(1-Adamantylmethyl)-4-[4-[[4-(5-ethoxypyridin-3-yl)-2,6-dimethoxyphenyl]methyl]piperazin-1-yl]-N-methylbenzamide]",0.9,0.0
"CCOc1cncc(-c2cc(CN3CCN(c4ccc(C(=O)N(C)CC56CC7CC(CC(C7)C5)C6)cc4)CC3)cc(C(F)(F)F)c2)c1 [B3A062-01, N-(1-Adamantylmethyl)-4-[4-[[3-(5-ethoxypyridin-3-yl)-5-(trifluoromethyl)phenyl]methyl]piperazin-1-yl]-N-methylbenzamide]",2.2,2.8

# — US20240132431A1, “METHOD FOR ALKYLATING ACIDIC FUNCTIONAL GROUP” (Chugai Seiyaku Kabushiki Kaisha, priority 2021, published 2024)
